Data published in patent US20240344032A1, “ORGANOID PRODUCTION METHOD, CULTURE MEDIUM FOR ORGANOID PRODUCTION, ORGANOID, AND TEST SUBSTANCE EVALUATION METHOD” (JSR CORPORATION, priority 2021, published 2024).
Where no end group is shown, it is not given here. [ ]: non-standard residue; d: D form. The star is where a group is joined. X1 = 4‑(carboxymethyl)piperazine‑1‑carbonyl, O=C(O)CN1CCN(C(=O)*)CC1; 1Nal = N[C@@H](Cc1cccc2ccccc12)C(=O)O; Gly(NCH2CH2Ph) = O=C(O)CNCCc1ccccc1; 4Pal = N[C@@H](Cc1ccncc1)C(=O)O

Assays:
[1] = test system: primary human hepatocytes; test: Culturing of human hepatocytes (proliferation of cells); format: cell-based
Procedure: Cryopreserved primary human hepatocytes in suspension (HEP187-S, manufactured by Biopredic International) were thawed in a water bath at 37° C., suspended in a 50 mL tube to which a serum-free culture medium (a culture medium obtained by adding HEPES, GLUTAMAX, and PENICILIN/STEREPTOMYCIN to Advanced DMEM/F12) had been added, and centrifuged. After the centrifugation, the supernatant was removed, and then the resultant product was suspended in a serum-free culture medium to prepare a human hepatocyte suspension. 20,000 human hepatocytes were collected from the suspension, mixed with 50 μL of Matrigel (registered trademark, manufactured by BD Biosciences), seeded in a 24-well tissue culture plate, and incubated at 37° C. for 10 minutes until Matrigel (registered trademark) was completely polymerized. After the polymerization, a culture medium (500 μL/well) prepared by adding each component to a basal medium to have the concentration shown in Table 4 below was overlaid, and culturing was carried out at 37° C. in the presence of 5% by volume of CO2. Advanced DMEM/F12 was used as a basal medium. The culture medium was exchanged every two or three days.
FIG. 2 is a graph showing a result of measuring the proliferation of cells.
FIG. 3 is a graph showing a result of measuring proliferation of cells in a case where the concentration of the #7401 peptide was set to be low.

[2] = test system: Human small intestinal epithelial cells (including human small intestinal stem cells); test: Examination of EGFR signal and p38 MAPK signal: culture of small intestinal epithelial cells, bright field observation and Lgr5-tdTomato reporter assay; format: cell-based
Procedure: Upregulation of EGFR signal is known to induce cell proliferation. Therefore, the cell proliferative properties in a state where there was no EGFR signal were examined. […] Therefore, culturing was examined in the presence or absence of the p38 MAPK signal.
To the basal medium (Advanced DMEM/F12), each component was added to the concentration shown in Table 5 below to prepare a culture medium. Human small intestinal epithelial cells (including human small intestinal stem cells) were dispersed in Matrigel (registered trademark, manufactured by BD Biosciences). Subsequently, the dispersion product was seeded into each well of a 48-well tissue culture plate and incubated at 37° C. for 10 minutes to polymerize Matrigel (registered trademark).
Subsequently, 300 μL/well of a culture medium was overlaid, and culturing was carried out at 37° C. for 10 days in the presence of 5% by volume of CO2. The culture medium was exchanged every two or three days. Cells were cultured for 10 days in a culture medium containing EGF and cultured for 14 days in a culture medium containing no EGF. Thereafter, bright field observation with an optical microscope in the well and Lgr5-tdTomato reporter assay were carried out.

[3] = test system: ALK5, VEGFR, RIPK2, MINK1, p38a MAPK, PKD1, and FGF-R1; conditions: known from the literature; cited from earlier work
[4] = test system: p38 MAPK signaling pathway; conditions: reported in Vogt J., et al., Cell Signal., 2011; cited from earlier work
[5] = test system: Human colon epithelial cells (including human colon stem cells); test: Culturing of human colon epithelial cells (organoid formation); format: cell-based; conditions: 0.5 nM, 5 nM, or 50 nM in culture medium, 7 days, optical microscope, FIG. 1
Procedure: To a basal medium, each component was added to have the concentration shown in Table 3 below to prepare a culture medium. In Table 3, “CM” means conditioned medium. Advanced DMEM/F12 was used as a basal medium. As the peptide, peptide names #7401 and #2392 were used (hereinafter, each may be referred to as “#7401 peptide” and “#2392 peptide”). Regarding the #7401 peptide, a chemical formula is shown in Formula (2-1), and an amino acid sequence (SEQ ID NO: 3) is shown in Formula (2-2). In addition, regarding the #2392 peptide, a chemical formula is shown in Formula (3-1), and an amino acid sequence (SEQ ID NO: 4) is shown in Formula (3-2).
Human colon epithelial cells (including human colon stem cells) were dispersed in Matrigel (registered trademark, manufactured by BD Biosciences). Subsequently, the dispersion product was seeded into each well of a 48-well tissue culture plate and incubated at 37° C. for 10 minutes to polymerize Matrigel (registered trademark).
Subsequently, the culture medium (300 μL/well) prepared in Experimental Example 1 was overlaid on each well, and culturing was carried out at 37° C. for 7 days in the presence of 5% by volume of CO2. The culture medium was exchanged every two or three days.

Compound	proliferation of cells ([1]; 5 μM added to the culture medium, FIG. 2)	cell proliferative properties and colony forming properties ([2]; medium containing EGF (50 ng/mL), no SB202190, 500 nM and 5000 nM, 10 days, FIG. 5)	stem cell properties (Lgr5-tdTomato reporter) versus 50 nM or 500 nM #7401 peptide ([2]; medium containing no EGF, no SB202190, 500 nM and 5000 nM, 14 days, FIG. 6)	stem cell properties (Lgr5-tdTomato reporter), 5000 nM versus 500 nM ([2]; medium containing no EGF, no SB202190, 14 days, FIG. 6)	action on ALK5 and off-target kinases/receptors [3]	inhibition of p38 MAPK signaling pathway [4]	organoid formation efficiency compared with A83-01 [5]	proliferation of cells ([1]; 50 nM in the culture medium, FIG. 3)
Cc1cccc(-c2nn(C(=S)Nc3ccccc3)cc2-c2ccnc3ccccc23)n1 [Peptide A83-01]	proliferation of cells is not observed after 35 days	the cell proliferative properties and the colony forming properties were concentration-dependently inhibited	higher stem cell properties	higher stem cell properties	strongly act	inhibits p38 MAPK signaling pathway	–	–
#2392 peptide: cyclic peptide, chemical formula in Formula (3-1), amino acid sequence (SEQ ID NO: 4) in Formula (3-2) (F[1Nal]VVNVTDD[Gly(NCH2CH2Ph)]V[1Nal]THVCG; bridge (positions not given here); not fully specified (bridges))	–	–	–	–	–	–	organoids can be formed with an efficiency equal to or higher than that in a case where A83-01 was added	–
#7401 peptide: cyclic peptide, chemical formula in Formula (2-1), amino acid sequence (SEQ ID NO: 3) in Formula (2-2) (F[1Nal]VVNV[4Pal]DD[Gly(NCH2CH2Ph)]V[1Nal]THK(X1)CG; bridge (positions not given here); not fully specified (bridges))	–	–	–	–	–	–	organoids can be formed with an efficiency equal to or higher than that in a case where A83-01 was added	cells can sufficiently proliferate
